Measurements from patent US20250213529A1, “5-METHOXY-N.N-[…][…] THE TREATMENT OF PSYCHOMOTOR RETARDATION” (GH RESEARCH IRELAND LIMITED, priority 2022, published 2025).

Columns and labels:
[1] = system: patients with postpartum depression (PPD); assay: Clinical trial in patients with postpartum depression; conditions: PPD patient (n=1); for Total MADRS improvement / Total MADRS score: baseline 29; for BPRS Tension improvement: baseline 6
Description: The single-arm, open-label clinical trial will involve 15 adult female patients with clinically diagnosed postpartum depression (PPD).
The second dose (12 mg) will only be administered if: • a. […] The 6 mg dose was safe and well-tolerated according to the investigator, • c. Any psychoactive effects (PsE) of the prior dose have subsided, and • d. Pre-dose vital parameters and forced expiratory volume in one second (FEV1) are in normal range, or if outside of the normal range, are not clinically significant according to the investigator. • 3. Similarly, a third dose (18 mg) will only be administered if: • a. […] The 12 mg dose was safe and well-tolerated according to the investigator, and • c. Any PsE of the prior dose have subsided, and • d. Pre-dose vital parameters and forced expiratory volume in one second (FEV1) are in normal range, or if outside of the normal range, are not clinically significant according to the investigator.
The patients will be assessed for a peak psychedelic experience (based on a patient-scored visual analogue scale, the PE scale), sedation, and other endpoints after dosing. Follow-up visits are planned for Day 1, and Day 7 after the dosing day.
The following criteria must be met by all patients considered for clinical trial participation: • 1. Is female and in the age range between 18 and 45 years (inclusive) at screening. • 2. Has a body mass index (BMI) in the range of 18.5 and 35 kg/m^2 (inclusive) at screening. • 3. Meets the trial criteria for PPD as assessed by a trial psychiatrist or registered psychologist: • a. Diagnosis of Major Depressive Disorder without psychotic features, confirmed by the Mini-International Neuropsychiatric Interview (MINI), with peri-partum onset that began no earlier than gestation and no later than the first 4 weeks postpartum. • b. Has a Montgomery-Åsberg Depression Rating Scale (MADRS) total score of equal to or greater than 28 at screening and pre-dose on Day 0. • 6. […] Patients must have a negative pregnancy test at screening and on the pre-test day (Day −1). • 5. Is willing to delay start of other antidepressant or anxiety medication until after the end of the trial at Day 7 and agrees to keep any psychotherapy unchanged during the trial.
A potential patient who meets any of the following key exclusion criteria will be excluded from participation in this trial: • 1. Has, based on history, psychiatric assessment, and evaluation of the MINI, a current or prior diagnosis of bipolar disorder, a manic or hypomanic episode, a psychotic disorder, Major Depressive Disorder (MDD) or other mood disorder with psychotic features, obsessive compulsive disorder, post-traumatic stress disorder (PTSD), autism spectrum disorder, borderline personality disorder, schizophrenia, delusional disorder, paranoid personality disorder, schizoaffective disorder, clinically significant intellectual disability, or any other psychiatric comorbidity that renders the patient unsuitable for the trial according to the investigator's judgment. • 2. Has one or more first or second degree relatives with a current or previously diagnosed bipolar disorder, psychotic disorder or other mood disorder (including MDD) with psychotic features. • 3. Is in the judgement of a trial psychiatrist or registered psychologist, at significant risk for suicide based on history, psychiatric assessment, and evaluation of suicidal ideation and suicidal behaviour based on the Columbia-Suicide Severity Rating Scale (C-SSRS). • 4. Has taken anti-depressive medication within 14 days or 5 half-lives (whichever is longer) prior to dosing (exception: within the last 5 weeks in the case of fluoxetine). • 5.

[2] = Pharmacokinetics of 5-MeO-DMT and bufotenine after inhalation; assay type: in vivo, human; conditions: after 3 hours, 6, 12, 18 mg
[3] = system: Salmonella typhimurium (TA98, TA100, TA1535 and TA1537); assay: Bacterial mutation test, Salmonella typhimurium; assay type: cell-based; conditions: up to 5000 µg/plate; absence and presence of rat liver S-9
Excerpt: (§1) These conditions included treatments at concentrations up to […] (the maximum recommended concentration according to current regulatory guidelines), in the absence and in the presence of a rat liver metabolic activation system (S-9).

[4] = system: Escherichia coli (WP2 uvrA pKM101); assay: Bacterial mutation test, Escherichia coli; assay type: cell-based; conditions: up to 5000 pg/plate; absence and presence of rat liver S-9
Excerpt: as §1

[5] = IDR 6 then 12 mg inhaled, Day 0 score 5
[6] = IDR 6 then 12 mg inhaled, Day 0 score 6
[7] = IDR 6 then 12 mg inhaled, Day 1
[8] = IDR 6 then 12 mg inhaled, Day 7, Day 0 score 5
[9] = IDR 6 then 12 mg inhaled, Day 7, Day 0 score 6
[10] = IDR 6 then 12 mg inhaled, Day 7
[11] = IDR 6 then 12 mg inhaled, Day 7 vs Day 0

COc1ccc2[nH]cc(CCN(C)C)c2c1 [5-MeO-DMT]
Tolerability of the inhalation procedure [1]: well tolerated with no inhalation-related adverse events
Reported adverse events (cramping left abdominal pain and headache) ([1]; Day 0): mild, short-lasting and resolved spontaneously
BIMF total score improvement, percent ([1]; Day 7, from 92 to 105): 14%
ECG, safety laboratory analyses, CADSS ([1]; ECG 3 hours, laboratory 7 days, CADSS 3 hours, 1 day, 7 days): unremarkable
MADRS remission (MADRS total score equal or less than 10) ([1]; IDR 6 then 12 mg inhaled): fulfilled
MADRS response (at least 50% improvement from baseline) ([1]; IDR 6 then 12 mg inhaled): fulfilled
Onset of clinical response after administration ([1]; IDR 6 then 12 mg inhaled): ≤ 2 h
Time to clinical remission after administration ([1]; IDR 6 then 12 mg inhaled): ≤ 2 h
Durability of clinical response ([1]; IDR 6 then 12 mg inhaled, given once): sustained over the 7-day follow-up period
Total MADRS improvement ([1]; IDR 6 then 12 mg inhaled, 2 hr): 24
Total MADRS score ([1]; IDR 6 then 12 mg inhaled, 2 hr): 5
BIMF item 19 (As time goes on, I am getting better at taking care of my baby) Δ (Day 7) ([1]; IDR 6 then 12 mg inhaled, Day 0 score 0): 1
BIMF item 13 (I am taking good care of my physical needs) Δ (Day 7) ([1]; IDR 6 then 12 mg inhaled, Day 0 score 4): 1
BIMF item 5 (I am able to relax and enjoy time with my baby) Δ (Day 7) [1, 5]: 1
BIMF item 9 (I am getting enough encouragement from other people) Δ (Day 7) [1, 5]: 1
BIMF item 10 (I trust my own feelings (instincts) when it comes to taking care of my baby) Δ (Day 7) [1, 5]: 1
BIMF item 11 (I take a little time each week to do something for myself) Δ (Day 7) [1, 5]: 1
BIMF item 17 (I am able to take care of my baby and my other responsibilities) Δ (Day 7) [1, 5]: 0
BIMF item 3 (I am comfortable with the way I've chosen to feed my baby) Δ (Day 7) [1, 6]: 0
BIMF item 6 (There are people in my life that I can trust to care for my baby when I need a break) Δ (Day 7) [1, 6]: 0
BIMF item 8 (I am getting enough adult interaction) Δ (Day 7) [1, 6]: 0
BIMF item 12 (I am taking good care of my baby's physical needs) Δ (Day 7) [1, 6]: 0
BIMF item 14 (I make good decisions about my baby's health and well being) Δ (Day 7) [1, 6]: 0
BIMF item 20 (I am satisfied with the job I am doing as a new mother) Δ (Day 7) [1, 6]: −1
BIMF TOTAL Δ (Day 7) ([1]; IDR 6 then 12 mg inhaled, Day 0 score 92): 13
BPRS Tension improvement [1, 7]: 5
Total MADRS improvement [1, 7]: 29
Total MADRS score [1, 7]: 0
BIMF item 19 (As time goes on, I am getting better at taking care of my baby) score ([1]; IDR 6 then 12 mg inhaled, Day 7, Day 0 score 0): 1
BIMF item 16 (I worry about how other people judge me (as a mother)) score ([1]; IDR 6 then 12 mg inhaled, Day 7, Day 0 score 3): 5
BIMF item 13 (I am taking good care of my physical needs) score ([1]; IDR 6 then 12 mg inhaled, Day 7, Day 0 score 4): 5
BIMF item 5 (I am able to relax and enjoy time with my baby) score [1, 8]: 6
BIMF item 9 (I am getting enough encouragement from other people) score [1, 8]: 6
BIMF item 10 (I trust my own feelings (instincts) when it comes to taking care of my baby) score [1, 8]: 6
BIMF item 11 (I take a little time each week to do something for myself) score [1, 8]: 6
BIMF item 17 (I am able to take care of my baby and my other responsibilities) score [1, 8]: 5
BIMF functional domain Adjustment score ([1]; IDR 6 then 12 mg inhaled, Day 7, Day 0 score 5, maximum 12): 6
BIMF item 3 (I am comfortable with the way I've chosen to feed my baby) score [1, 9]: 6
BIMF item 6 (There are people in my life that I can trust to care for my baby when I need a break) score [1, 9]: 6
BIMF item 8 (I am getting enough adult interaction) score [1, 9]: 6
BIMF item 12 (I am taking good care of my baby's physical needs) score [1, 9]: 6
BIMF item 14 (I make good decisions about my baby's health and well being) score [1, 9]: 6
BIMF item 20 (I am satisfied with the job I am doing as a new mother) score [1, 9]: 5
BIMF functional domain Self Care score ([1]; IDR 6 then 12 mg inhaled, Day 7, Day 0 score 9, maximum 18): 13
BIMF functional domain Infant Care score ([1]; IDR 6 then 12 mg inhaled, Day 7, Day 0 score 12, maximum 12): 12
BIMF functional domain Mother-Child Interaction score ([1]; IDR 6 then 12 mg inhaled, Day 7, Day 0 score 15, maximum 18): 17
BIMF functional domain Social Support score ([1]; IDR 6 then 12 mg inhaled, Day 7, Day 0 score 17, maximum 18): 18
BIMF functional domain Management score ([1]; IDR 6 then 12 mg inhaled, Day 7, Day 0 score 28, maximum 36): 33
BIMF functional domain Psychological Well-being score ([1]; IDR 6 then 12 mg inhaled, Day 7, Day 0 score 44, maximum 60): 53
Total MADRS improvement [1, 10]: 28
Total MADRS score [1, 10]: 1
BIMF functional domain Adjustment % Improvement [1, 11]: 20.00%
BIMF functional domain Infant Care % Improvement [1, 11]: 0.00%
BIMF functional domain Management % Improvement [1, 11]: 18%
BIMF functional domain Self Care % Improvement [1, 11]: 44%
BPRS Tension improvement ([1]; IDR 6 then 12 mg inhaled, Discharge): 5
PES score (intensity of the psychedelic experience) ([1]; nominal dose of 6 mg inhaled): 17.3
Changes in vital parameters ([1]; shortly after administration): temporary, clinically non-relevant increase in heart rate and blood pressure
PES score (intensity of the psychedelic experience) ([1]; subsequent dose of 12 mg inhaled): 85.7
Detectability in plasma [2]: no longer detectable
Induction of mutation [3]: did not induce mutation
Induction of mutation [4]: did not induce mutation
